Assay in all cases: NCI anticancer screen, dose series, 48 h
The subject of assay [1] is ACHN.
Assay [2] has as its system COLO 205.
The subject of assay [3] is HCC 2998.
In assay [4] the test system is HCT-116.
Assay [5] relates to HOP-62.
The test system of assay [6] is HOP-92.
Assay [7] deals with KM12.
The test system of assay [8] is LOX IMVI.
The subject of assay [9] is M14.
Assay [10] relates to MOLT-4.
For assay [11], the system named is OVCAR-5.
In assay [12] the test system is RXF 393.
Assay [13] has as its system SF-268.
The test system of assay [14] is SF-539.
The subject of assay [15] is SK-OV-3.
For assay [16], the system named is SN12C.
Assay [17] concerns SR.
Assay [18] deals with SW-620.
In assay [19] the test system is TK-10.
Assay [20] relates to UO-31.

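Compound exposure: 48 hours, 5 concentrations, 96-well plates. GI50 is the concentration that inhibits growth by half.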 Calls of active or inactive are those of the source. Rule as the data show it: active = GI50 up to about 1.1 µM and inactive = higher.

For the compound `CC1(c2nc3ccccc3[nH]2)CCC(C#N)C(C)(C)O1` (stereo not given), the GI50 in [1], in assay [2], in assay [3], in [4], in assay [5] and in [6] was > 100 µM (inactive) each time. The GI50 in assay [7] was 7.74 µM (inactive); in assay [8], > 100 µM (inactive); in assay [9], > 100 µM (inactive); in [10], > 100 µM (inactive); in assay [11], > 100 µM (inactive); in [12], > 100 µM (inactive). Further, the GI50 in [13], in assay [14], in assay [15], in assay [16], in assay [17] and in [18] was > 100 µM (inactive) in each case. For the same compound, the GI50 was > 100 µM (inactive) in [19] and 36 µM (inactive) in assay [20].

Turning to `O=C(N/N=C1\C(=O)Nc2ccc(Br)cc21)/C(O)=C/C(=O)c1ccc(Cl)cc1`, the GI50 in [1] was > 100 µM (inactive); in [2] it was 86.5 µM (inactive); in [3], 50.5 µM (inactive); in assay [4], 47.1 µM (inactive); in assay [5] it was 54.6 µM (inactive); in [6], 43.1 µM (inactive). In addition, the GI50 in [7] is > 100 µM (inactive); in [8], 34 µM (inactive); in assay [9], > 100 µM (inactive); in assay [10], 0.0705 µM (active); in assay [11], 97.5 µM (inactive); in assay [12], 31.3 µM (inactive). Also, the GI50 in [13] is 36.4 µM (inactive); in [14], 71.3 µM (inactive); in assay [15] it was 64.1 µM (inactive); in assay [16], 67.8 µM (inactive); in assay [17] it was < 0.01 µM (active); in assay [18], 40.8 µM (inactive). Also, the GI50 is 50.4 µM (inactive) in assay [19] and > 100 µM (inactive) in assay [20].

Consider `CCOc1ccc(NC(=O)C(=O)CC(=O)c2c(C)[n+]([O-])c3ccccc3[n+]2[O-])cc1`, for which the GI50 in assay [1], in [2], in assay [3], in [4], in assay [5] and in assay [6] was > 100 µM (inactive) in each case. Besides, the GI50 in assay [7] is > 100 µM (inactive); in assay [8], > 100 µM (inactive); in [9], > 100 µM (inactive); in assay [10], 81.5 µM (inactive); in assay [11], > 100 µM (inactive); in assay [12] it was > 100 µM (inactive). Also, the GI50 is > 100 µM (inactive) in assay [13]; > 100 µM (inactive) in assay [14]; > 100 µM (inactive) in assay [15]; > 100 µM (inactive) in assay [16]; 64.9 µM (inactive) in assay [17]; > 100 µM (inactive) in [18]. In addition, the GI50 in assay [19] and in assay [20] was > 100 µM (inactive) throughout.

Take `CCOC(=O)C(NC(=O)N(C1=NCC(C)S1)C1CCCCC1)(OC)C(F)(F)F` (stereo not given): the GI50 in assay [1] was 31.2 µM (inactive); in [2] it was 23.2 µM (inactive); in assay [3], 43.9 µM (inactive); in assay [4], 31.6 µM (inactive); in [5], 15.8 µM (inactive); in assay [6] it was 46 µM (inactive). Besides, the GI50 in assay [7] was 33 µM (inactive); in assay [8], 19.7 µM (inactive); in [9] it was 51.2 µM (inactive); in assay [10] it was 37.8 µM (inactive); in [11], > 100 µM (inactive); in assay [12], 17.9 µM (inactive). For the same compound, the GI50 was 32.6 µM (inactive) in assay [13]; 32.3 µM (inactive) in [14]; 52.4 µM (inactive) in assay [15]; 15.1 µM (inactive) in assay [16]; 39.6 µM (inactive) in assay [17]; 35.2 µM (inactive) in assay [18]. Moreover, the GI50 was 57.5 µM (inactive) in [19] and 52 µM (inactive) in assay [20].

For the compound `N#CC1(c2nc3ccccc3o2)C(=O)C(=O)N(C2C3CC4CC(C3)CC2C4)C(=O)C1=O` (stereo not given), the GI50 in [1] was > 100 µM (inactive); in [2] it was > 100 µM (inactive); in assay [3], > 100 µM (inactive); in [4] it was > 100 µM (inactive); in [5] it was > 100 µM (inactive); in assay [6] it was 84.9 µM (inactive). Also, the GI50 in assay [7], in assay [8], in [9], in assay [10], in [11] and in assay [12] was > 100 µM (inactive) in each case. The GI50 in [13], in assay [14], in assay [15], in [16], in [17] and in assay [18] was > 100 µM (inactive) each time. The GI50 in assay [19] and in [20] was > 100 µM (inactive) throughout.

The record behind these values is ChEMBL document CHEMBL1201862, “PubChem BioAssay data set” (2004).
